Source: patent US6458760B1, “Method for treating tissue damaged from ischemia” (Henry Ford Health System, priority 1998, dated 2002)
Residues, ends and D or L forms follow the SMILES beside them. *: point of attachment. Cbz = O=C(OCc1ccccc1)*; CHN2 = [N-]=[N+]=C*; Bn = c1ccc(C*)cc1

Legend:
[1] = target: T1, cathepsin B (Rattus norvegicus, UniProt P00787); test: Cathepsin B activity in brain homogenates after 2 h MCA occlusion and infusion; type: in vivo
T1 construct: the brains were extracted and separated with right and left, cortical and subcortical regions and immediately frozen in liquid nitrogen; from tissue; host or cells: rat brain (cortical and subcortical regions), homogenate
T1 sequence (P00787 80-333): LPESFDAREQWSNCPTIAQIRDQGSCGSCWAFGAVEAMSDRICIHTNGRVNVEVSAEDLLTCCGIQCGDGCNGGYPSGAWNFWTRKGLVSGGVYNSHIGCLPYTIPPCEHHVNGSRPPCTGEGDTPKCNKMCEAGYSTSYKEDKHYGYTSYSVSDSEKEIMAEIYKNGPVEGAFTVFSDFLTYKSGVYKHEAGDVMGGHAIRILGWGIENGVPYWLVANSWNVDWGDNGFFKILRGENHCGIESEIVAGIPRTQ
Experimental: The protocol of Example 6 was followed except as follows: the rats under went two hours of MCA occlusion, they were administered either CP-1 (50 μM) or 1% DMSO/saline for four hours after reperfusion and the rats were sacrificed after 48 hours of survival.
At that time, the brains were extracted and separated with right and left, cortical and subcortical regions and immediately frozen in liquid nitrogen. The samples were homogenized with buffer, titrated, and then reacted with the substrate CBZ-Arg-Arg-AMC with the resultant fluorescence measured with a fluorophotometer. Activity is expressed in units of enzyme activity per mg of soluble brain protein (mean +SEM).

[2] = target: Cathepsin L (Homo sapiens, UniProt P07711); test: Cathepsin L inactivation rate, fluorimetric progress curves; type: biochemical; details: second order inactivation rate constant corrected for substrate; substrate Z-Phe-Arg-AMC; pH 5.4, 30° C.
Chain of Cathepsin L (P07711 114-333, species assumed): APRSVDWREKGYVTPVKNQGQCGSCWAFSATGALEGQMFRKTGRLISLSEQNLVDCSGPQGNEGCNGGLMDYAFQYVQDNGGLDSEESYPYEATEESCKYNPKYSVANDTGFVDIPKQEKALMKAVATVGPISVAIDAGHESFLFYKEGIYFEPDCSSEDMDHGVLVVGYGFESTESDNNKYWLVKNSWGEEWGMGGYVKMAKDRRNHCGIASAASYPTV
Experimental: (§1) (“Tian, et al.”) the contents of which are incorporated by reference. More specifically, the value of kobs is given by the slope of a plot of ln [P]∞−[p]t versus t (time). The apparent second-order rate contact for inactivation, k2app was calculated as kobs/[I]. The inactivation-rates (kobs) in the presence of substrate and for different inhibitor concentrations for calpain, cathepsin B and cathepsin L are determined according to the method of Tian, et al. However, k2app is corrected for the presence of substrate (s) to give the second order rate constant k^12app, calculated as k^12app=k2app (1+[s]/Km).
Cathepsins B and L were preactivated with […] DTT in 50 mM sodium acetate buffer, pH 5.4, 1 mM EDTA for 2 h at 4° C. and assayed in the same buffer with 0.01% Brij [poly(oxyethylene) glycol dodecyl ether]. 5 μM (final concentration) CBZ-Phe-Arg-AMC was used as substrate for both for cathepsins B and L. The inhibitors (0.1-1 μM) and substrate were added to the reaction mixture to incubate for 5 min in a cuvette thermostated at 30° C. Then, approximately 0.4 nM and 0.1 nM final concentration of cathepsin B and cathepsin L, respectively, were used to initiate the reaction. […] The progress curves were analyzed over at least 3 half lives to calculate the rate constants of inactivation in accordance with the procedure described by Crawford, C. Mason, R. W., Wilkström, P., and Shaw, E. in an article entitled “The design of peptidyldiazomethane inhibitors to distinguish between the cysteine proteinases calpain II, cathepsin L and cathepsin B.”, Biochem. J. 1988, 253, 751-758, the contents of which are incorporated by reference. The rates of inactivation of various substrates are tabulated hereinbelow.

[3] = target: Cathepsin B (Homo sapiens, UniProt P07858); test: Cathepsin B inactivation rate, fluorimetric progress curves; type: biochemical; details: second order inactivation rate constant corrected for substrate; pH 5.4, 30° C.
Experimental: as §1
Cathepsins B and L were preactivated with […] DTT in 50 mM sodium acetate buffer, pH 5.4, 1 mM EDTA for 2 h at 4° C. and assayed in the same buffer with 0.01% Brij [poly(oxyethylene) glycol dodecyl ether]. […] The inhibitors (0.1-1 μM) and substrate were added to the reaction mixture to incubate for 5 min in a cuvette thermostated at 30° C. Then, approximately 0.4 nM and 0.1 nM final concentration of cathepsin B and cathepsin L, respectively, were used to initiate the reaction. […] The progress curves were analyzed over at least 3 half lives to calculate the rate constants of inactivation in accordance with the procedure described by Crawford, C. Mason, R. W., Wilkström, P., and Shaw, E. in an article entitled “The design of peptidyldiazomethane inhibitors to distinguish between the cysteine proteinases calpain II, cathepsin L and cathepsin B.”, Biochem. J. 1988, 253, 751-758, the contents of which are incorporated by reference. The rates of inactivation of various substrates are tabulated hereinbelow.

[4] = tested on: Wistar rats with MCA occlusion; test: Stroke model, 3 h MCA occlusion, infarct volume at 7 days; type: in vivo, rat
Experimental: After anesthesia had been induced in the rat, a catheter was inserted into the femoral vein and tunneled subcutaneously in the posterior neck region. Body temperature was maintained at a constant temperature of 37° C. during surgical procedures. The animals underwent 2 hours of MCA occlusion, and then reperfusion when the suture was withdrawn, and immediately thereafter, the drug was infused for four hours. The animals were killed after a 7-day reperfusion, and the brains were formalin fixed and sliced 6-μm thick into seven coronal sections A-G, and mounted on coated slides. After staining with hematoxylin and eosin, the stroke volume was measured using an image analysis program. The stroke area and the contralateral hemispheric area were calculated by tracing the areas on the computer screen, and the volumes were determined by multiplying the appropriate area by the section interval thickness. The stroke volume is expressed as the percentage of lesion size to the volume of contralateral hemisphere. […]
CP-1 dissolved in 1% DMSO and isotonic saline was given intravenously to Wistar rats (15 μl/min) at a concentration of 50 μM for four hours beginning at the end of three hours of MCA occlusion, in accordance with the protocol described hereinabove. […] All animals which survived 7 days were sacrificed and the infarct volume was measured 7 days after the MCA occlusion. […]

In the case of `[N-]=[N+]=CC(=O)C(COCc1ccccc1)NC(=O)C(Cc1ccccc1)NC(=O)OCc1ccccc1` (stereo not drawn) [CP-1, benzyloxycarbonyl-Phe-Ser(OBz)-CHN2] (Cbz-Phe-Ser(Bn)-CHN2; configuration not given here), the “Cathepsin B activity, Left Cortex” value ([1]; 50 μM i.v. 4 h after 2 h MCA occlusion, 48 h survival, mean ± SEM, control 0.142 ± 0.02) is reported as 0.106 ± .01 units of enzyme activity per mg of soluble brain protein, the “Cathepsin B activity, Left Subcortex” value ([1]; 50 μM i.v. 4 h after 2 h MCA occlusion, 48 h survival, mean ± SEM, control 0.147 ± 0.02, p < 0.05) is reported as 0.084 ± .01 units of enzyme activity per mg of soluble brain protein and the “Cathepsin B activity, Right Cortex” value ([1]; 50 μM i.v. 4 h after 2 h MCA occlusion, 48 h survival, mean ± SEM, control 0.181 ± 0.04) is reported as 0.113 ± 0.01 units of enzyme activity per mg of soluble brain protein. The “Cathepsin B activity, Right Subcortex” value ([1]; 50 μM i.v. 4 h after 2 h MCA occlusion, 48 h survival, mean ± SEM, control 0.198 ± 0.03, p < 0.05) was 0.113 ± 0.02 units of enzyme activity per mg of soluble brain protein, the “cathepsin B activity in the subcortical regions versus vehicle” value ([1]; 50 μM infusion after 2 h MCA occlusion) was “significantly lower” and the “Cathepsin L k′2app” value [2] was 1,000,000 M^−1S^−1. The “Cathepsin B k′2app” value [3] was 8,800 M^−1S^−1, the “% Hemisphere Infact Volume (% ± SEM)” value ([4]; 50 μM i.v. for 4 h beginning at end of 3 h MCA occlusion, day 7, control 41.1 ± 2.4, P>0.05) was 39.9 ± 4.1% and the “reducing infarct size” value ([4]; 50 μM, 3 hour MCA occlusion) was “not effective”.
